Entries after “also recorded” stand apart in the source; their conditions may differ.
Assays:
[1] = Thermal analysis (Differential Scanning Calorimetry); assay type: physicochemical; conditions: DSC, 10° C./min
Procedure: For the Differential Scanning Calorimetry, METTLER TOLEDO DSC821e and METTLER TOLEDO STARe System were used. 3.7 mg of sample was weighed into the aluminum pan, which was then press sealed with an aluminum lid. After three tiny needle holes were made on the lid, the sample was tested by heating from normal temperature to 250° C. at a rate of 10° C./min.

[2] = Equilibrium moisture content determination of hydrates; assay type: physicochemical
Procedure: Six saturated aqueous salt solutions were introduced into each desiccator to control the inner relative humidity to a specific value as represented in the following Table 28. Then, equilibrium moisture contents of 3 hydrate and 1.5 hydrate prepared in Examples 205 and 206, respectively, were determined at several relative humidities.
Specifically, 100 mg of the sample was spread on a preweighed Petri dish and the total weight was accurately measured, then three of the sample were placed in each desiccator of Table 28. The desiccators were allowed to stand at normal temperature for 7 days and then the sample was taken to be weighed. After 13 days had passed, one of the three samples inside each desiccator was taken and the moisture content of each was measured by the thermogravimetric analysis described in Test Example 2. Equilibrium moisture content at each relative humidity is represented in FIG. 3 (3 hydrate), and FIG. 4 (1.5 hydrate). […] Both hydrates are stable since they keep a constant equilibrium moisture content regardless of the relative humidity change.

[3] = Chemical stability under heating; conditions: for thermal stability: hydrate
Procedure: The anhydride and each of the hydrates was introduced into a glass vial and maintained at 70° C.

[4] = Moisture content according to hydration number; assay type: physicochemical
Procedure: The moisture content of the hydrate varies with the hydration number (n) of the hydrated molecule. Since the molecular weight of 7-(4-amino-methyl-3-methyloxylminopyrrolidin-1-yl)-1-cyclopropyl-6-fluoro- 4-oxo-1,4-dihydro-1,8-naphthyridine-3-carboxylic acid methanesulfonate is 485.5, the moisture content of the hydrate for n equal to 1, 1.5, 2, 2.5, 3, 3.5 or 4 is calculated to be 3.6%, […], 6.9%, 8.5%, 10.0%, 11.5% or 12.9%, respectively. However, the actual moisture content may differ from the calculated moisture content depending on differences in recrystallization conditions, drying conditions, etc.

[5] = Moisture adsorption test of the anhydride; assay type: physicochemical; conditions: 25° C.
Procedure: Under various relative humidities at 25° C., the moisture adsorption velocity and the equilibrium moisture content of the anhydride prepared in Example 203 were determined by means of an automatic moisture adsorption analyzer (MB 300 G Gravimetric Sorption Analyzer). This instrument produces a specific relative humidity at a specific temperature and continuously records the weight change of a sample due to adsorption or desorption of moisture as measured by a micro balance inside the instrument. 16 mg of the anhydride sample was loaded on the micro balance and the moisture contained in the sample was removed under a dry nitrogen stream at 50° C. A weight change of less than 5 μg per 5 minutes was the criterion for complete dryness. Thereafter, the inner temperature was adjusted to 25° C., and the sample was tested varying the relative humidity from 0 to 95% at 5% intervals. The sample was considered to have reached equilibrium at each relative humidity tested when the weight change was less than 5 μg per 5 minutes. […] In most cases, the equilibrium was reached within 2 hours.

[6] = Humidification of the anhydride with humidified nitrogen (Example 205); assay type: physicochemical
Procedure: A sonicator filled with water was adjusted to 40° C. and was sealed with a lid. Then, a nitrogen introducing tube and a nitrogen excreting tube were connected to the vessel. When the pressure of the dried nitrogen introduced through the nitrogen introducing tube was adjusted to 20 psi, the relative humidity of the humidified nitrogen excreted through the excreting tube was more than 93%. […] Samples were taken after 0, 5, 10, 20, 30, and 60 minutes, respectively, and the moisture content with the lapse of time was measured. From the results shown in FIG. 8, it can be seen that moisture content of about 10% is constantly maintained when the humidifying procedure is carried out over 30 minutes. The X-ray diffraction pattern of the humidified sample was identical to that the 3 hydrate obtained after recrystallization.

gram-positive strains = conditions: background art; cited from earlier work
[7] = background art; cited from earlier work

CON=C1CN(c2nc3c(cc2F)c(=O)c(C(=O)O)cn3C2CC2)CC1CN (stereo not drawn) [3 hydrate, 7-(4-aminomethyl-3-methyloxyiminopyrrolidin-1-yl)-1-cyclopropyl-6-fluoro-4-oxo-1,4-dihydro-1,8-naphthyridine-3-carboxylic acid methanesulfonate·3 hydrate]
onset of endothermic peak (vaporization of water) [1]: around 50 °C | stability of hydrate towards relative humidity change [2]: stable | equilibrium moisture content ([2]; whole relative humidity range tested (23 to 75%)): around 10% | thermal stability compared with the anhydride ([3]; 70° C., Table 29): the same degree of thermal stability as the anhydride | thermal stability ([3]; 40320 min): 94% | thermal stability [3]: 97% | Moisture Content ([4]; actual moisture content, methanesulfonate hydrates, hydrate): 9-11% | change of moisture content ([4]; among stable hydrates): lowest

CON=C1CN(c2nc3c(cc2F)c(=O)c(C(=O)O)cn3C2CC2)CC1CN (stereo not drawn) [anhydride, 7-(4-aminomethyl-3-methyloxyiminopyrrolidin-1-yl)-1-cyclopropyl-6-fluoro-4-oxo-1,4-dihydro-1,8-naphthyridine-3-carboxylic acid methanesulfonate anhydride]
moisture adsorption ([5]; relative humidity 0 to 95%): Initial moisture adsorption proceeded very speedily at each relative humidity tested; also recorded: the equilibrium moisture content is dependent upon the relative humidity | time to reach moisture adsorption equilibrium ([5]; relative humidity 0 to 95% at 5% intervals, in most cases): ≤ 2 h | endothermic peak [1]: without any endothermic peak | Moisture Content ([6]; before humidification): about 2.5% | Moisture Content ([6]; humidified nitrogen, over 30 minutes, FIG. 8): about 10%

CCn1cc(C(=O)O)c(=O)c2cc(F)c(N3CCNCC3)cc21 [norfloxacin]
antibacterial activity against gram-positive strains (gram-positive strains): weak antibacterial activity against gram-positive strains | distribution and absorption in living body [7]: poor distribution and absorption in living body
